Drawing on patent US9382228B2 (priority 2013, dated 2016), this text covers IC50 for 19 compounds.

Test [1] deals with unphosphorylated PDGFRβ kinase (uPDGFRβ, Seq. ID No. 3) (Homo sapiens, UniProt P09619). The experiment in a line: biochemical. The conditions noted are these: uPDGFRb, enzymatic assay, ATP 500 μM.
Test [2] addresses unphosphorylated c-KIT kinase (uKIT, Seq. ID no. 2) (Homo sapiens, UniProt P10721). The experiment in a line: biochemical. The conditions noted are these: uKIT, enzymatic assay, ATP 2000 μM.
Method: uKit kinase (Seq. ID No. 2) Assay
In this assay, the oxidation of NADH (thus the decrease at A340 nm) was continuously monitored spectrophometrically. […] The inhibition reaction was started by mixing serial diluted test compound with the above reaction mixture. The absorption at 340 nm was monitored continuously for 4 hours at 30° C. on Synergy 2 plate reader (BioTech).
In test [3] the target is T1, unphosphorylated c-FMS kinase (uFMS, Seq. ID no. 1) (Homo sapiens, UniProt P07333).
T1 sequence (P07333 538-972): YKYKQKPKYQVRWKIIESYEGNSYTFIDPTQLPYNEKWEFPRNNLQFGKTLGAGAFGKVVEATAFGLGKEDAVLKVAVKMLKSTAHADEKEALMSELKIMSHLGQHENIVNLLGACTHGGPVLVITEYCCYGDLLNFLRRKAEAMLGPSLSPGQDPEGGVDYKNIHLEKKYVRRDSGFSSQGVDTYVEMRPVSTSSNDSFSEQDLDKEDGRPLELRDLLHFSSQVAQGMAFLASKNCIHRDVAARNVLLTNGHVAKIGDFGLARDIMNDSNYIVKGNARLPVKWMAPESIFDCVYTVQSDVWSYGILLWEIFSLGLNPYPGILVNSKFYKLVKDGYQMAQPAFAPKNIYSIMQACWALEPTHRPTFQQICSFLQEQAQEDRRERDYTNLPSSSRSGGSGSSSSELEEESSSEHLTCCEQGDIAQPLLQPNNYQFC
In words: biochemical. The conditions noted are these: uFMS, enzymatic assay, ATP 500 μM.
Method: In this assay, the oxidation of NADH (thus the decrease at A340 nm) was continuously monitored spectrophometrically. The reaction mixture (100 μL) contained FMS (purchased from Millipore) (10 nM), polyE4Y (1 mg/mL), MgCl2 (10 mM), pyruvate kinase (4 units), lactate dehydrogenase (0.7 units), phosphoenol pyruvate (1 mM), NADH (0.28 mM) and ATP (500 μM) in 90 mM Tris buffer containing 0.2% octyl-glucoside and 1% DMSO, pH 7.5. The inhibition reaction was started by mixing serial diluted test compound with the above reaction mixture. The absorption at 340 nm was monitored continuously for 4 hours at 30° C. on Synergy 2 plate reader. The reaction rate was calculated using the 3 to 4 h time frame. Percent inhibition was obtained by comparison of reaction rate with that of a control (i.e. in the absence of test compound). IC50 values were calculated from a series of percent inhibition values determined at a range of inhibitor concentrations using software routines as implemented in the GraphPad Prism software package.

Another test concerns osteoclast precursors. In words: cells. In kind it is cell-based. The conditions noted are these: read-out: Osteoclast assay. How it is done: Osteoclast Tartrate-Resistant Acid Phosphatase Assay
Diluted compound was transferred to a 384-well black clear bottom plate. Two-thousand five hundred osteoclast precursors (Lonza, Walkersville, Md.) were added per well in growth media containing Receptor Activator of Nuclear Factor Kappa-beta ligand (RANKL) and M-CSF (R&D Systems, Minneapolis, Minn.). […] Tartrate-resistant acid phosphatase activity in the supernatant samples was determined using an acid phosphatase assay kit (Sigma, St. Louis, Mo.). Absorbance was measured at 550 nm using a plate reader. Data was analyzed using Prism software (Graphpad, San Diego, Calif.) to calculate IC50 values.

In the next test the test system is M-NFS-60 cells. The experiment in a line: cells. The conditions noted are these: 67 h, read-out: M-NFS-60 cell proliferation.

Sequence of unphosphorylated c-KIT kinase (uKIT, Seq. ID no. 2) (P10721 with tags, fused parts or gaps): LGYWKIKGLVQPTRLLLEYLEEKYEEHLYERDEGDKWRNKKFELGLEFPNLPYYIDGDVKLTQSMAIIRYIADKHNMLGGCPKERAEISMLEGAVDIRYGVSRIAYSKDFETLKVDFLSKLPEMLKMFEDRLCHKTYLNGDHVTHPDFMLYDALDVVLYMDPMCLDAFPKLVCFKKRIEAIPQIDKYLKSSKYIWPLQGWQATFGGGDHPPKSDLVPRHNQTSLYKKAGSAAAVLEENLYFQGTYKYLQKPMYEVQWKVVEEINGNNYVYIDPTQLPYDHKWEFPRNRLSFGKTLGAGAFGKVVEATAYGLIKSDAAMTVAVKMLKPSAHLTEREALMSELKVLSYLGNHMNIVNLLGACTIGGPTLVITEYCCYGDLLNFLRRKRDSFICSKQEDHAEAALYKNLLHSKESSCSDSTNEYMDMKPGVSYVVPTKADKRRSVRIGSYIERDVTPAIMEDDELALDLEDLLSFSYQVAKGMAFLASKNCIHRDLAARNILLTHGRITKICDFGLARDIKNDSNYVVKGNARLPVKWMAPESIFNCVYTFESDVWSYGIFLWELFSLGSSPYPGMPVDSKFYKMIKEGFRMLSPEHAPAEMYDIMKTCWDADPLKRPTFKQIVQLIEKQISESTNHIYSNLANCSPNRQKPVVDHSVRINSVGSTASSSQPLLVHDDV
Sequence of unphosphorylated PDGFRβ kinase (uPDGFRβ, Seq. ID No. 3) (P09619 557-1106): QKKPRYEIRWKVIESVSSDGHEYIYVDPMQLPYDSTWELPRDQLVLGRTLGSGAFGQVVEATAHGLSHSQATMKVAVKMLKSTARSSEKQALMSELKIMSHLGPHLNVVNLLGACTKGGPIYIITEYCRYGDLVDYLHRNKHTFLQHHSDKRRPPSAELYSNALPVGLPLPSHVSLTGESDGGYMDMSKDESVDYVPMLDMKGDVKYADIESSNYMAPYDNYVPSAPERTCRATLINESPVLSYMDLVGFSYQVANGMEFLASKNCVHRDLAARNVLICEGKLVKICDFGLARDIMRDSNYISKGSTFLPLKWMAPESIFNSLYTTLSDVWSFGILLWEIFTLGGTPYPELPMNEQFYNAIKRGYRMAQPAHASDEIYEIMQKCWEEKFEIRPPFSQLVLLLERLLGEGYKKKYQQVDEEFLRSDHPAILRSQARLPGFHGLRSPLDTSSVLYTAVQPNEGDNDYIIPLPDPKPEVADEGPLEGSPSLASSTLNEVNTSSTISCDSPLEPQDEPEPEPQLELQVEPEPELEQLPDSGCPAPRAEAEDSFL
Method for M-NFS-60 cells: M-NFS-6 Cell Proliferation Assay
A serial dilution of test compound was dispensed into a 384-well black clear bottom plate (Corning, Corning, N.Y.). Two thousand five hundred cells were added per well in 50 μL complete growth medium. […] IC50 values were calculated from a series of percent inhibition values determined at a range of inhibitor concentrations using software routines as implemented in the GraphPad Prism software package.

`Cc1cn(-c2cc(Oc3ccc(NC(=O)NC(=O)[C@@H]4C[C@H]5CC[C@@H]4O5)nc3C)ccn2)cn1` (relative stereo) [Example 137, exo-N-((6-methyl-5-((2-(4-methyl-1H-imidazol-1-yl)pyridin-4-yl)oxy)pyridin-2-yl)carbamoyl)-7-oxabicyclo[2.2.1]heptane-2-carboxamide]: the IC50 in test [1] was over 1000 nM; in test [2], over 1000 nM; in test [3] it was 10 to 100 nM; in the test with osteoclast precursors, 10 to 100 nM; with M-NFS-60 cells, 100 to 1000 nM.

For `Cc1nc(NC(=O)NC(=O)C(C)(C)C#N)ccc1Oc1ccnc(-c2cnn(C)c2)c1` [Example 29, 2-cyano-2-methyl-N-((6-methyl-5-((2-(1-methyl-1H-pyrazol-4-yl)pyridin-4-yl)oxy)pyridin-2-yl)carbamoyl)propanamide], the IC50 in test [1] is over 1000 nM; in test [2], over 1000 nM; in test [3], 10 to 100 nM; in the test with M-NFS-60 cells, 100 to 1000 nM.

As for `Cn1cc(-c2cc(Oc3ccc(NC(=O)NC(=O)C(C)(C)C#N)nc3)ccn2)cn1` [Example 30, 2-cyano-2-methyl-N-((5-((2-(1-methyl-1H-pyrazol-4-yl)pyridin-4-yl)oxy)pyridin-2-yl)carbamoyl)propanamide], the IC50 is over 1000 nM in test [1], over 1000 nM in test [2], 100 to 1000 nM in test [3] and over 1000 nM in the test with M-NFS-60 cells.

On to `Cc1nc(NC(=O)NC(=O)C23CC4CC(CC(C4)C2)C3)ccc1Oc1ccnc(-c2cnn(C)c2)c1` [Example 37, N-((6-methyl-5-((2-(1-methyl-1H-pyrazol-4-yl)pyridin-4-yl)oxy)pyridin-2-yl)carbamoyl)adamantane-1-carboxamide], for which the IC50 in test [1] is 10 to 100 nM; in test [2], 10 to 100 nM; in test [3], under 10 nM; in the test on osteoclast precursors, 100 to 1000 nM; in the test with M-NFS-60 cells, 10 to 100 nM.

On to `Cn1cc(-c2cc(Oc3ccc(NC(=O)NC(=O)CC4CC5CCC4C5)nc3)ccn2)cn1` (stereo not drawn) [Example 62, 2-(bicyclo[2.2.1]heptan-2-yl)-N-((5-((2-(1-methyl-1H-pyrazol-4-yl)pyridin-4-yl)oxy)pyridin-2-yl)carbamoyl)acetamide], for which the IC50 (in test [1]; in test [2]; in test [3]; with osteoclast precursors; in the test with M-NFS-60 cells) was under 10 nM in each case.

In the case of `CCC(C)(C)C(=O)NC(=O)Nc1ccc(Oc2ccnc(-c3cnn(C)c3)c2)cn1` [Example 63, 2,2-dimethyl-N-((5-((2-(1-methyl-1H-pyrazol-4-yl)pyridin-4-yl)oxy)pyridin-2-yl)carbamoyl)butanamide], the IC50 in test [1] was 100 to 1000 nM; in test [2], 100 to 1000 nM; in test [3], under 10 nM; in the test with osteoclast precursors it was under 10 nM; in the test on M-NFS-60 cells it was under 10 nM.

`Cn1cc(-c2cc(Oc3ccc(NC(=O)NC(=O)C4CC5CCC4C5)nc3)ccn2)cn1` (stereo not drawn) [Example 64, N-((5-((2-(1-methyl-1H-pyrazol-4-yl)pyridin-4-yl)oxy)pyridin-2-yl)carbamoyl)bicyclo[2.2.1]heptane-2-carboxamide]: the IC50 in test [1] is 10 to 100 nM; in test [2], under 10 nM; in test [3] it was under 10 nM; with osteoclast precursors, 10 to 100 nM; in the test with M-NFS-60 cells it was under 10 nM.

For the compound `Cn1cc(-c2cc(Oc3ccc(NC(=O)NC(=O)C4CCCC4)nc3)ccn2)cn1` [Example 65, N-((5-((2-(1-methyl-1H-pyrazol-4-yl)pyridin-4-yl)oxy)pyridin-2-yl)carbamoyl)cyclopentanecarboxamide], the IC50 in test [1] was 100 to 1000 nM; in test [2] it was under 10 nM; in test [3] it was under 10 nM; in the test with osteoclast precursors it was under 10 nM; with M-NFS-60 cells, under 10 nM.

For the compound `Cn1cc(-c2cc(Oc3ccc(NC(=O)NC(=O)C4CCCCC4)nc3)ccn2)cn1` [Example 67, N-((5-((2-(1-methyl-1H-pyrazol-4-yl)pyridin-4-yl)oxy)pyridin-2-yl)carbamoyl)cyclohexanecarboxamide], the IC50 is 10 to 100 nM in test [1]; under 10 nM in test [2]; under 10 nM in test [3]; under 10 nM with osteoclast precursors; under 10 nM with M-NFS-60 cells.

`Cn1cc(-c2cc(Oc3ccc(NC(=O)NC(=O)C4CCOCC4)nc3)ccn2)cn1` [Example 68, N-((5-((2-(1-methyl-1H-pyrazol-4-yl)pyridin-4-yl)oxy)pyridin-2-yl)carbamoyl)tetrahydro-2H-pyran-4-carboxamide]: the IC50 was 100 to 1000 nM in test [1]; 100 to 1000 nM in test [2]; under 10 nM in test [3]; under 10 nM with osteoclast precursors; 10 to 100 nM in the test with M-NFS-60 cells.

As for `Cn1cc(-c2cc(Oc3ccc(NC(=O)NC(=O)C4CC5CCC4CC5)nc3)ccn2)cn1` (stereo not drawn) [Example 74, N-((5-((2-(1-methyl-1H-pyrazol-4-yl)pyridin-4-yl)oxy)pyridin-2-yl)carbamoyl)bicyclo[2.2.2]octane-2-carboxamide], the IC50 in test [1] is 10 to 100 nM; in test [2], under 10 nM; in test [3], under 10 nM; in the test with osteoclast precursors it was 10 to 100 nM; with M-NFS-60 cells, under 10 nM.

On to `Cc1cc(-c2cc(Oc3ccc(NC(=O)NC(=O)C4CCOC4)nc3)ccn2)ccn1` (stereo not drawn) [Example 85, N-((5-((2′-methyl-[2,4′-bipyridin]-4-yl)oxy)pyridin-2-yl)carbamoyl)tetrahydrofuran-3-carboxamide], for which the IC50 was over 1000 nM in test [1]; over 1000 nM in test [2]; 10 to 100 nM in test [3]; 10 to 100 nM in the test with osteoclast precursors; 100 to 1000 nM in the test on M-NFS-60 cells.

In the case of `Cn1cc(-c2cc(Oc3ccc(NC(=O)NC(=O)C4(C)CCC4)nc3)ccn2)cn1` [Example 87, 1-methyl-N-((5-((2-(1-methyl-1H-pyrazol-4-yl)pyridin-4-yl)oxy)pyridin-2-yl)carbamoyl)cyclobutanecarboxamide], the IC50 is 100 to 1000 nM in test [1]; 100 to 1000 nM in test [2]; under 10 nM in test [3]; under 10 nM with osteoclast precursors; under 10 nM in the test with M-NFS-60 cells.

`Cc1cc(NC(=O)NC(=O)C(C)C)ncc1Oc1ccnc(-c2cnn(C)c2)c1` [Example 88, N-((4-methyl-5-((2-(1-methyl-1H-pyrazol-4-yl)pyridin-4-yl)oxy)pyridin-2-yl)carbamoyl)isobutyramide]: the IC50 was 100 to 1000 nM in test [1]; 10 to 100 nM in test [2]; under 10 nM in test [3]; under 10 nM with osteoclast precursors; under 10 nM in the test on M-NFS-60 cells.

Regarding `Cc1ccc(-c2cc(Oc3ccc(NC(=O)NC(=O)C4CCOC4)nc3)ccn2)cn1` (stereo not drawn) [Example 89, N-((5-((6′-methyl-[2,3′-bipyridin]-4-yl)oxy)pyridin-2-yl)carbamoyl)tetrahydrofuran-3-carboxamide], the IC50 in test [1] was over 1000 nM; in test [2], over 1000 nM; in test [3] it was 10 to 100 nM; in the test with osteoclast precursors, 10 to 100 nM; in the test with M-NFS-60 cells it was 10 to 100 nM.

Take `CC(C)(C)C(=O)NC(=O)Nc1ccc(Oc2ccnc(-c3cncnc3)c2)cn1` [Example 90, N-((5-((2-(pyrimidin-5-yl)pyridin-4-yl)oxy)pyridin-2-yl)carbamoyl)pivalamide]: the IC50 in test [1] is over 1000 nM; in test [2] it was over 1000 nM; in test [3], 10 to 100 nM; in the test on osteoclast precursors, 10 to 100 nM; in the test with M-NFS-60 cells, over 1000 nM.

As for `CC(C)(C)C(=O)NC(=O)Nc1ccc(Oc2ccnc(-c3ccc(C(F)(F)F)nc3)c2)cn1` [Example 94, N-((5-((6′-(trifluoromethyl)-[2,3′-bipyridin]-4-yl)oxy)pyridin-2-yl)carbamoyl)pivalamide], the IC50 in test [1] was over 1000 nM; in test [2], over 1000 nM; in test [3] it was under 10 nM; with osteoclast precursors, 10 to 100 nM; in the test on M-NFS-60 cells, 10 to 100 nM.

Turning to `CC(C)(C)C(=O)NC(=O)Nc1ccc(Oc2ccnc(-c3ccnc(C(F)(F)F)c3)c2)cn1` [Example 95, N-((5-((2′-(trifluoromethyl)-[2,4′-bipyridin]-4-yl)oxy)pyridin-2-yl)carbamoyl)pivalamide], the IC50 in test [1] is over 1000 nM; in test [2], over 1000 nM; in test [3], 10 to 100 nM; with osteoclast precursors it was 10 to 100 nM; in the test on M-NFS-60 cells, 100 to 1000 nM.

For `Cc1ccc(-c2cc(Oc3ccc(NC(=O)NC(=O)C4CCCC4)nc3C)ccn2)cn1` [Example 100, N-((6-methyl-5-((6′-methyl-[2,3′-bipyridin]-4-yl)oxy)pyridin-2-yl)carbamoyl)cyclopentanecarboxamide], the IC50 is over 1000 nM in test [1]; 10 to 100 nM in test [2]; under 10 nM in test [3]; under 10 nM in the test with osteoclast precursors; 10 to 100 nM with M-NFS-60 cells.
